Measurements published in US20170334899A1, “AMINO-SUBSTITUTED ISOTHIAZOLES” (Bayer Pharma Aktiengesellschaft, priority 2014, published 2017).
“And” between values parts separate entries of the source, which are not always exact repeats. Equal values may be shown once.

Molecular target: T1, human kinase Mps-1 (Homo sapiens, UniProt P33981)
T1 construct: N-terminally GST-tagged human full length recombinant Mps-1 kinase; GST (N); purchased Invitrogen, Karslruhe, Germany PV4071
T1 sequence (P33981 1-857): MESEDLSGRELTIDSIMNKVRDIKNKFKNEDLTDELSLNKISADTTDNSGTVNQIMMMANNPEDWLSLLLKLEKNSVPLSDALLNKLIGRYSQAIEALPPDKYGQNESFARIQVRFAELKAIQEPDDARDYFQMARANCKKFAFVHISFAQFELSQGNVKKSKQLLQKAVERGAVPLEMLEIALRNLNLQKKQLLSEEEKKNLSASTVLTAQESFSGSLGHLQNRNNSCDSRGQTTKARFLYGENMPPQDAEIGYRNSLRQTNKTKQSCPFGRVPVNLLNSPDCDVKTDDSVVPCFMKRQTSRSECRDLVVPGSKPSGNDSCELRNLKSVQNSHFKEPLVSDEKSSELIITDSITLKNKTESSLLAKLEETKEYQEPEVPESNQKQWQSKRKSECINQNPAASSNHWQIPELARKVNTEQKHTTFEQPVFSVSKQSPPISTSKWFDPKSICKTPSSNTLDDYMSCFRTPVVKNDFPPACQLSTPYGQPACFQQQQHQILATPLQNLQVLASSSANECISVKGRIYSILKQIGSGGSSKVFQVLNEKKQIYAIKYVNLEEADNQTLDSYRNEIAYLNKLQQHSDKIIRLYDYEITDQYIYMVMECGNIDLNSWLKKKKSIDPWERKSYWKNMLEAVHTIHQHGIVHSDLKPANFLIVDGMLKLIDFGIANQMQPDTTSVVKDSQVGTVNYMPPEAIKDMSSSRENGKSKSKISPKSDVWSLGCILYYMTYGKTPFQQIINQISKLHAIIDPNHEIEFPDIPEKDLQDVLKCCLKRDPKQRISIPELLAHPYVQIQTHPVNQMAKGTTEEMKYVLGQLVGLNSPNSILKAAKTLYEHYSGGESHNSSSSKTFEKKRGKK
Assay: Mps-1 kinase assay (TR-FRET)
Format: biochemical
Conditions: Mps-1 TR-FRET kinase assay; avg; read-out: Mps1 avg (IC50 [mol/l])
Summary of the method: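 Inhibition normalised between uninhibited reaction (0%) and enzyme-free wells (100%), using the blank-corrected TR-FRET 665/620 nm ratio after EDTA stop. Reaction: ~0.5 nM GST-Mps-1 full length, 10 μM ATP, 1 μM biotin-peptide, 60 min at 22 °C, after 15 min compound pre-binding, pH 7.7.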

Row | IC50 | SMILES
1 | > 20 µM | Cc1nsc(Nc2cnc(C(F)(F)F)cn2)c1C(=O)Nc1ccc(OCC2CCN(C(=O)OC(C)(C)C)CC2)nc1 [Example 227, tert-butyl 4-{[(5-{[(3-methyl-5-{[5-(trifluoromethyl)pyrazin-2-yl]amino}-1,2-thiazol-4-yl)carbonyl]amino}pyridin-2-yl)oxy]methyl}piperidine-1-carboxylate]
2 | > 20 µM | Cc1nsc(Nc2cnc(C(F)(F)F)cn2)c1C(=O)Nc1ccc(OCC2CCCN(C(=O)OC(C)(C)C)C2)nc1 (centres unmarked) [Example 228, tert-butyl 3-{[(5-{[(3-methyl-5-{[5-(trifluoromethyl)pyrazin-2-yl]amino}-1,2-thiazol-4-yl)carbonyl]amino}pyridin-2-yl)oxy]methyl}piperidine-1-carboxylate]
3 | > 20 µM | Cc1nsc(Nc2cnc3ccccc3n2)c1C(=O)Nc1ccc(NC2CCN(C(=O)OC(C)(C)C)CC2)nc1 [Example 234, tert-butyl 4-{[5-({[3-methyl-5-(quinoxalin-2-ylamino)-1,2-thiazol-4-yl]carbonyl}amino)pyridin-2-yl]amino}piperidine-1-carboxylate]
4 | > 20 µM and 14 µM | Cc1nsc(Nc2cnc3ccccc3n2)c1C(=O)Nc1ccc(NCCC(=O)OC(C)(C)C)nc1 [Example 236, tert-butyl N-[5-({[3-methyl-5-(quinoxalin-2-ylamino)-1,2-thiazol-4-yl]carbonyl}amino)pyridin-2-yl]-beta-alaninate]
5 | > 20 µM | Cc1nsc(Nc2cnc3ccccc3n2)c1C(=O)Nc1ccc(NC2CCCN(C(=O)OC(C)(C)C)C2)nc1 (centres unmarked) [Example 241, tert-butyl 3-{[5-({[3-methyl-5-(quinoxalin-2-ylamino)-1,2-thiazol-4-yl]carbonyl}amino)pyridin-2-yl]amino}piperidine-1-carboxylate]
6 | > 20 µM | Cc1nsc(Nc2cnc3ccccc3n2)c1C(=O)Nc1ccc(NCCNC(=O)OC(C)(C)C)nc1 [Example 244, tert-butyl (2-{[5-({[3-methyl-5-(quinoxalin-2-ylamino)-1,2-thiazol-4-yl]carbonyl}amino)pyridin-2-yl]amino}ethyl)carbamate]
7 | > 20 µM and 19 µM | Cc1nsc(Nc2cnc3ccccc3n2)c1C(=O)Nc1ccc(Nc2ccc(F)c(F)c2)nc1 [Example 245, N-{6-[(3,4-difluorophenyl)amino]pyridin-3-yl}-3-methyl-5-(quinoxalin-2-ylamino)-1,2-thiazole-4-carboxamide]

Further lines, the molecule ahead of its results:

Row | SMILES | IC50
8 | Cc1nsc(Nc2cncc(C(F)(F)F)n2)c1C(=O)Nc1ccc(OC2CCN(CCF)CC2)c(F)c1 [Example 223, N-(3-fluoro-4-{[1-(2-fluoroethyl)piperidin-4-yl]oxy}phenyl)-3-methyl-5-{[6-(trifluoromethyl)pyrazin-2-yl]amino}-1,2-thiazole-4-carboxamide] | > 20 µM
9 | Cc1nsc(Nc2cncc(C(F)(F)F)n2)c1C(=O)Nc1ccc(OC2CCN(CC(F)F)CC2)c(F)c1 [Example 224, N-(4-{[1-(2,2-difluoroethyl)piperidin-4-yl]oxy}-3-fluorophenyl)-3-methyl-5-{[6-(trifluoromethyl)pyrazin-2-yl]amino}-1,2-thiazole-4-carboxamide] | > 20 µM
10 | Cc1nsc(Nc2cncc(C(F)(F)F)n2)c1C(=O)Nc1ccc(C(=O)NC2CCN(CC(F)F)CC2)cc1 [Example 225, N-N-(4-{[1-(2,2-difluoroethyl)piperidin-4-yl]carbamoyl}phenyl)-3-methyl-5-{[6-(trifluoromethyl)pyrazin-2-yl]amino}-1,2-thiazole-4-carboxamide] | > 20 µM
11 | Cc1nsc(Nc2cncc(C(F)(F)F)n2)c1C(=O)Nc1ccc(OCC2CCN(C(=O)OC(C)(C)C)CC2)nc1 [Example 226, tert-butyl 4-{[(5-{[(3-methyl-5-{[6-(trifluoromethyl)pyrazin-2-yl]amino}-1,2-thiazol-4-yl)carbonyl]amino}pyridin-2-yl)oxy]methyl}piperidine-1-carboxylate] | > 20 µM
12 | Cc1nsc(Nc2cnc(C(F)(F)F)cn2)c1C(=O)Nc1ccc(F)c(OC2CCN(C(=O)OC(C)(C)C)CC2)c1 [Example 229, tert-butyl 4-(2-fluoro-5-{[(3-methyl-5-{[5-(trifluoromethyl)pyrazin-2-yl]amino}-1,2-thiazol-4-yl)carbonyl]amino}phenoxy)piperidine-1-carboxylate] | > 20 µM
13 | Cc1nsc(Nc2cc(C#N)ccn2)c1C(=O)Nc1ccc(Oc2cccc(C(F)(F)F)c2)nc1 [Example 230, 5-[(4-cyanopyridin-2-yl)amino]-3-methyl-N-{6-[3-(trifluoromethyl)phenoxy]pyridin-3-yl}-1,2-thiazole-4-carboxamide] | > 20 µM
14 | Cc1nsc(Nc2cnc3ccccc3n2)c1C(=O)Nc1ccc(Oc2cccnc2)nc1 [Example 231, 3-methyl-N-[6-(pyridin-3-yloxy)pyridin-3-yl]-5-(quinoxalin-2-ylamino)-1,2-thiazole-4-carboxamide] | > 20 µM
15 | Cc1nsc(Nc2cnc3ccccc3n2)c1C(=O)Nc1ccc(Oc2ccc(SC(F)(F)F)cc2)nc1 [Example 233, 3-methyl-5-(quinoxalin-2-ylamino)-N-(6-{4-[(trifluoromethyl)sulfanyl]phenoxy}pyridin-3-yl)-1,2-thiazole-4-carboxamide] | > 20 µM
16 | COc1ccc(NC(=O)c2c(C)nsc2Nc2cnc3ccccc3n2)c(CC#N)n1 [Example 235, N-[2-(cyanomethyl)-6-methoxypyridin-3-yl]-3-methyl-5-(quinoxalin-2-ylamino)-1,2-thiazole-4-carboxamide] | 12 µM
17 | COC(=O)c1cc(NC(=O)c2c(C)nsc2Nc2cnc3ccccc3n2)cc(C(=O)OC)c1 [Example 237, dimethyl 5-({[3-methyl-5-(quinoxalin-2-ylamino)-1,2-thiazol-4-yl]carbonyl}amino)isophthalate] | > 20 µM
18 | Cc1nsc(Nc2cc(C#N)ccn2)c1C(=O)Nc1cccc(C(=O)OC(C)(C)C)c1 [Example 239, tert-butyl 3-[({5-[(4-cyanopyridin-2-yl)amino]-3-methyl-1,2-thiazol-4-yl}carbonyl)amino]benzoate] | > 20 µM
19 | Cc1nsc(Nc2ccc(C#N)cn2)c1C(=O)Nc1cccc(C(=O)OC(C)(C)C)c1 [Example 240, tert-butyl 3-[({5-[(5-cyanopyridin-2-yl)amino]-3-methyl-1,2-thiazol-4-yl}carbonyl)amino]benzoate] | > 20 µM
20 | Cc1nsc(Nc2cc(C#N)ccn2)c1C(=O)Nc1ccc(NC2CCCNC2)nc1 (centres unmarked) [Example 242, 5-[(4-cyanopyridin-2-yl)amino]-3-methyl-N-[6-(piperidin-3-ylamino)pyridin-3-yl]-1,2-thiazole-4-carboxamide] | > 20 µM
21 | Cc1cc(C)n(-c2ccccc2NC(=O)c2c(C)nsc2Nc2cnc3ccccc3n2)n1 [Example 243, N-[2-(3,5-dimethyl-1H-pyrazol-1-yl)phenyl]-3-methyl-5-(quinoxalin-2-ylamino)-1,2-thiazole-4-carboxamide] | > 20 µM
22 | Cc1nsc(Nc2ccc(C#N)cn2)c1C(=O)Nc1ccc(S(C)(=O)=O)cc1 [Example 246, 5-[(5-cyanopyridin-2-yl)amino]-3-methyl-N-[4-(methylsulfonyl)phenyl]-1,2-thiazole-4-carboxamide] | > 20 µM
23 | CCN(CC)CCNC(=O)c1cccc(NC(=O)c2c(C)nsc2Nc2cnccn2)c1 [Example 247, N-(3-{[2-(diethylamino)ethyl]carbamoyl}phenyl)-3-methyl-5-(pyrazin-2-ylamino)-1,2-thiazole-4-carboxamide] | > 20 µM
